*1 amine or outer side, *2 acyl side, *3 side chain or, on linkers, in order; H or OH if unused. Where a SMILES comes first, the peptide text is derived from it. Bridges are numbered along the chain shown (N, C = ends). [ ]: non-standard residue; d: D form. dPhe(4-Et) = CCc1ccc(C[C@@H](N)C(=O)O)cc1; dPhe(4-Me) = Cc1ccc(C[C@@H](N)C(=O)O)cc1; hCys = N[C@@H](CCS)C(=O)O; X1 = O=C(CC[*:2])[*:1]
Legend:
[1] = target: T1, biological effect of vasopressin (blood pressure) (Rattus norvegicus, UniProt P30560); test: suppression of the biological effect of vasopressin, i.e. of blood pressure in a despinalized rat; conditions: in vivo, blood volume 6.7 ml/100g of rat weight assumed
T1 construct: blood pressure in a despinalized rat; from tissue; host or cells: despinalized rat in vivo (vasculature)
T1 sequence (P30560 whole entry): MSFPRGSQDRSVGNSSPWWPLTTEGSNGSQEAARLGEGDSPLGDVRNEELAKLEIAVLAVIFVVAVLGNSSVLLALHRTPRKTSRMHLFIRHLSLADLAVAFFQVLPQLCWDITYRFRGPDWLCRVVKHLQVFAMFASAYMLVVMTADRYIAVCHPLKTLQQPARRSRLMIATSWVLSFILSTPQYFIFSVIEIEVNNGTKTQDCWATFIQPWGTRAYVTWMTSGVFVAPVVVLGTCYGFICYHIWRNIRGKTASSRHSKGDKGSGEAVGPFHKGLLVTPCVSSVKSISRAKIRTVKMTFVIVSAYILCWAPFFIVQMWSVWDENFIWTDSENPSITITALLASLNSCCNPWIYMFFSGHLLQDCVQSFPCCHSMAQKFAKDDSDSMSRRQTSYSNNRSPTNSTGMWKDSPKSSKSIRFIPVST
Method: ^(a) the negative decadic logarithm of the analog concentration which
leads to suppression of the biological effect of vasopressin (i.e. of
blood pressure in a despinalized rat) to 50% of the original response; th
blood volume of rat (6.7 ml/100g of rat weight) is assumed in the in vivo
test (Nestor J. J., Ferger M. F., du Vigneaud V.: J. Med. Chem. 18, 284

isolated rat uterus = target: T2, isolated rat uterus (Rattus norvegicus, UniProt P70536); test: pA2 values as tested with an isolated rat uterus (oxytocin as agonist); format: cell-based; conditions: negative decadic logarithm of an inhibitory constant
T2 construct: isolated rat uterus; from tissue; host or cells: isolated rat uterus
T2 sequence (P70536 1-388): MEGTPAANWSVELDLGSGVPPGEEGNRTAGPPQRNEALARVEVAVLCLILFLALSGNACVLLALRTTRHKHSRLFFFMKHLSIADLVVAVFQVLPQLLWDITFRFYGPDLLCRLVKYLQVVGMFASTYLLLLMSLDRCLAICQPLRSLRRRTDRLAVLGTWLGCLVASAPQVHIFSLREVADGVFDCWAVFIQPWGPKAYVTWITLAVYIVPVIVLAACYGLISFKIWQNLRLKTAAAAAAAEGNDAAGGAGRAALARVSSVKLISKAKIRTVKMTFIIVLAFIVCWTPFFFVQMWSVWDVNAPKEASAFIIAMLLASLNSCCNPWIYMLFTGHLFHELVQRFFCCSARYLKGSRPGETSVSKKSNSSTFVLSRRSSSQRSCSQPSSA
Description: Each of the above-identified analogs evidenced strong inhibitory effects. Table I, set forth below, set forth numerical values of the biological activity of these analogs wherein pA2 represents the negative decadic logarithm of an inhibitory constant in accordance with the equation [formula] wherein B is the concentration of the inhibitor in moles per liter, A50 is the concentration of an agonistic compound (oxytocin) which results in 50% of the maximum effect, and A50B is the concentration of an agonistic compound yielding 50% of the maximum effect in the presence of an inhibitor of concentration B (Eggena P., Schwartz I. L., and Walter R.: J. Gen. Physiol. 52, 465 (1968).
pA2 values as tested with an isolated rat uterus

[2] = system: uterotonic and pressor activity of natural hormones; test: inhibitory effects of the analogs toward natural hormones (general statements); conditions: in words
[3] = system: uterotonic activity of oxytocin; test: inhibitory effect toward the uterotonic activity of oxytocin in the in vivo test with a uterus; conditions: compared with the equipotential dose of [2D-p-ethylphenylalanine] oxytocin
Description: uterotonic activity of oxytocin in the in vivo test with a uterus as
compared with the equipotential dose of the compound ([
2D-p-ethylphenylalanine] oxytocin).

SMILES	Kb (isolated rat uterus) [nM]	also measured
CCc1ccc(C[C@H]2NC(=O)[C@@H](N)CSSC[C@@H](C(=O)N3CCC[C@H]3C(=O)N[C@@H](CCCCN)C(=O)NCC(N)=O)NC(=O)[C@H](CC(N)=O)NC(=O)[C@H](CCC(N)=O)NC(=O)[C@H](Cc3ccccc3)NC2=O)cc1 [Ih, [2-D-p-Ethylphenylalanine, 8-lysine]vasopressin] (HELM PEPTIDE1{C.[CCc1ccc(C[C@@H](N[*:1])C(=O)[*:2])cc1].F.Q.N.C.P.K.G.[am]}$PEPTIDE1,PEPTIDE1,1:R3-6:R3$$$V2.0)		pA2 (negative decadic logarithm of the analog concentration which leads to suppression of the biological effect of vasopressin to 50% of the original response) [1]: 7.05
CCc1ccc(C[C@H]2NC(=O)[C@@H](N)CSSC[C@@H](C(=O)N3CCC[C@H]3C(=O)N[C@@H](CC(C)C)C(=O)NCC(N)=O)NC(=O)[C@H](CC(N)=O)NC(=O)[C@H](CCC(N)=O)NC(=O)[C@H]([C@@H](C)CC)NC2=O)cc1 [If, [2-D-p-Ethylphenylalanine]oxytocin] (HELM PEPTIDE1{C.[CCc1ccc(C[C@@H](N[*:1])C(=O)[*:2])cc1].I.Q.N.C.P.L.G.[am]}$PEPTIDE1,PEPTIDE1,1:R3-6:R3$$$V2.0)	7.08	
CCc1ccc(C[C@H]2NC(=O)CCSSC[C@@H](C(=O)N3CCC[C@H]3C(=O)N[C@@H](CC(C)C)C(=O)NCC(N)=O)NC(=O)[C@H](CC(N)=O)NC(=O)[C@H](CCC(N)=O)NC(=O)[C@H]([C@@H](C)CC)NC2=O)cc1 [Ie, [2-D-p-Ethylphenylalanine]deamino-oxytocin] (HELM PEPTIDE1{[O=C(CCS[*:3])[*:2]].[CCc1ccc(C[C@@H](N[*:1])C(=O)[*:2])cc1].I.Q.N.C.P.L.G.[am]}$PEPTIDE1,PEPTIDE1,1:R3-6:R3$$$V2.0)		pA2 (isolated rat uterus): 8.06
CCc1ccc(C[C@H]2NC(=O)[C@@H](NC(=O)CNC(=O)CNC(=O)CN)CSSC[C@@H](C(=O)N3CCC[C@H]3C(=O)N[C@@H](CC(C)C)C(=O)NCC(N)=O)NC(=O)[C@H](CC(N)=O)NC(=O)[C@H](CCC(N)=O)NC(=O)[C@H]([C@@H](C)CC)NC2=O)cc1 [Ii, N^δ -Glycyl-glycyl-glycyl[2-D-p-ethylphenylalanine]oxytocin] (HELM PEPTIDE1{G.G.G.C.[CCc1ccc(C[C@@H](N[*:1])C(=O)[*:2])cc1].I.Q.N.C.P.L.G.[am]}$PEPTIDE1,PEPTIDE1,4:R3-9:R3$$$V2.0)	724	inhibitory effect toward the uterotonic activity of oxytocin, duration [3]: prolonged inhibitory effect
CCc1ccc(C[C@H]2NC(=O)[C@@H](N)C(C)(C)SSC[C@@H](C(=O)N3CCC[C@H]3C(=O)N[C@@H](CC(C)C)C(=O)NCC(N)=O)NC(=O)[C@H](CC(N)=O)NC(=O)[C@H](CCC(N)=O)NC(=O)[C@H]([C@@H](C)CC)NC2=O)cc1 [Ig, [1-Penicilamine, 2-D-p-ethylphenylalanine]oxytocin] (HELM PEPTIDE1{[Pen].[CCc1ccc(C[C@@H](N[*:1])C(=O)[*:2])cc1].I.Q.N.C.P.L.G.[am]}$PEPTIDE1,PEPTIDE1,1:R3-6:R3$$$V2.0)	8.13	

Second part, led by results:

Kb (isolated rat uterus) [nM]	SMILES	also measured
5.5	CC[C@H](C)[C@@H]1NC(=O)[C@@H](Cc2ccccc2)NC(=O)CCSCC[C@@H](C(=O)N2CCC[C@H]2C(=O)N[C@@H](CC(C)C)C(=O)NCC(N)=O)NC(=O)[C@H](CC(N)=O)NC(=O)[C@H](CCC(N)=O)NC1=O [Ia, [2-D-Phenylalanine]deamino-6-carba-oxytocin] (HELM PEPTIDE1{[dF].I.Q.N.[O=C([C@H](CCS[*:3])N[*:1])[*:2]].P.L.G.[am]}|CHEM1{[O=C(CC[*:2])[*:1]]}$PEPTIDE1,CHEM1,1:R1-1:R1|PEPTIDE1,CHEM1,5:R3-1:R2$$$V2.0)	
1.58	CC[C@H](C)[C@@H]1NC(=O)[C@@H](Cc2ccc(C)cc2)NC(=O)CCSCC[C@@H](C(=O)N2CCC[C@H]2C(=O)N[C@@H](CC(C)C)C(=O)O)NC(=O)[C@H](CC(N)=O)NC(=O)[C@H](CCC(N)=O)NC1=O [Ij, [2-D-p-methylphenylalanine, 9-desglycinamide]deamino-6-carbaoxytocin] ([dPhe(4-Me)]IQN[hCys]PL-OH; linker N-5 via X1)	inhibitory effect [2]: retained
1.86	CC[C@H](C)[C@@H]1NC(=O)[C@@H](Cc2ccc(C)cc2)NC(=O)CCSCC[C@@H](C(=O)N2CCC[C@H]2C(=O)N[C@@H](CC(C)C)C(=O)NCC(N)=O)NC(=O)[C@H](CC(N)=O)NC(=O)[C@H](CCC(N)=O)NC1=O [Ic, [2-D-p-Methylphenylalanine]deamino-6-carba-oxytocin] ([dPhe(4-Me)]IQN[hCys]PLG-NH2; linker N-5 via X1)	
28.8	CCOc1ccc(C[C@H]2NC(=O)CCSCC[C@@H](C(=O)N3CCC[C@H]3C(=O)N[C@@H](CC(C)C)C(=O)NCC(N)=O)NC(=O)[C@H](CC(N)=O)NC(=O)[C@H](CCC(N)=O)NC(=O)[C@H]([C@@H](C)CC)NC2=O)cc1 [Ib, [2-D-o-Ethyltyrosine]deamino-6-carba-oxytocin] ([dY](Et)IQN[hCys]PLG-NH2; linker N-5 via X1)	
1.86	CCc1ccc(C[C@H]2NC(=O)CCSCC[C@@H](C(=O)N3CCC[C@H]3C(=O)N[C@@H](CC(C)C)C(=O)NCC(N)=O)NC(=O)[C@H](CC(N)=O)NC(=O)[C@H](CCC(N)=O)NC(=O)[C@H]([C@@H](C)CC)NC2=O)cc1 [Id, [2-D-p-Ethylphenylalanine]deamino-6-carba-oxytocin] ([dPhe(4-Et)]IQN[hCys]PLG-NH2; linker N-5 via X1)	
